According to patent publication US8853147B2, “Use of peptide epoxyketones for metastasis suppression” (Onyx Therapeutics, Inc., priority 2009, dated 2014):
Entries after “also recorded” stand apart in the source; their conditions may differ.

Test system: 4T1 mammary carcinoma cells
Assay: 4T1 mammary carcinoma metastasis model in BALB/c mice (mammary fat pad challenge, lung metastases)
Format: in vivo
Details: female BALB/c mice
Description: 6-8 week old female BALB/c mice were challenged in the mammary fat pad with 4T1 mammary carcinoma cells (1×10^5/mouse). Treatment was initiated on Day 3 post tumor challenge. Compound 1 was administered orally at 30 or 40 mg/kg on a weekly schedule of QDX2 or QDX5.

## COC[C@H](NC(=O)c1cnc(C)s1)C(=O)N[C@@H](COC)C(=O)N[C@@H](Cc1ccccc1)C(=O)[C@@]1(C)CO1 [Compound 1]
4T1 cells 1×10^5/mouse in mammary fat pad, oral 30 or 40 mg/kg, weekly schedule QDX2 or QDX5, treatment from Day 3 post tumor challenge
  reduction of the number of metastatic tumors in the lung: about 50%
4T1 model, both dose schedules (QDX2, QDX5) and dose levels (30, 40 mg/kg oral), FIG. 1
  repression of metastasis (number of metastatic tumors), result in words: reduction in the number of metastatic breast tumors; also recorded: effective in repressing metastasis
